These results are taken from US20250339569A1, “CARBONIC ANHYDRASE IX LIGANDS” (priority 2021, published 2025).

Structures are written as SMILES. Starred links: 1 amine or outer side, 2 acyl side, 3 side chain; linkers in the order of their positions; H or OH if unused. Positions of bridges follow the written chain, without caps; N, C: chain ends. Non-standard residues stand in square brackets, D forms with d. Residues, ends and D or L forms follow the SMILES beside them. *: point of attachment. NH(1-deoxy-D-glucityl) = OC[C@@H](O)[C@@H](O)[C@H](O)[C@@H](O)CN*; DOTA = O=C(O)CN1CCN(CC(=O)O)CCN(CC(=O)*)CCN(CC(=O)O)CC1; X19 = O=C([C@H](CS(=O)(=O)Cc1ccccc1)N[*:1])[*:2]; Phe(3-CF3) = N[C@@H](Cc1cccc(C(F)(F)F)c1)C(=O)O; Phe(4-CF3) = N[C@@H](Cc1ccc(C(F)(F)F)cc1)C(=O)O; Phe(4-I) = N[C@@H](Cc1ccc(I)cc1)C(=O)O; mXylylene = c1cc(C[*:1])cc(C[*:2])c1; X2 = O=C(CN1CCC(N[*:1])CC1)[*:2]; Cha = N[C@@H](CC1CCCCC1)C(=O)O; NMeD = CN[C@@H](CC(=O)O)C(=O)O A value given as a limit tells only on which side of the number the result lay.

The target in assay [1] is T1, CAIX-expressing human HT-29 colorectal cancer cells (Homo sapiens, UniProt Q16790).
T1 construct: CAIX-expressing human HT-29 colorectal cancer cells; host or cells: HT-29 human colorectal cancer cells
Nature of the assay: FACS binding assay (IC50 determination, competition with tracer 3BP-2776 or 3BP-4149). The following applies: FACS binding assay, HT-29 cells, competition with tracer 3BP-2776 (10 nM, biotin-labeled), 4° C., 1 hour; read-out: pIC50 category (activity) (converted). A digest of the protocol:
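HT-29 cells in FACS buffer (PBS, 1% FCS) at 500.000 cells/ml were exposed to compounds competing with a labelled tracer, with biotinylated compounds detected by 1 μg/mL APC-streptavidin for 30 min on ice. APC/Cy5 median fluorescence was read by flow cytometry and IC50 derived by 4PL fit.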

The target in assay [2] is T2, human carbonic anhydrase IX (hCAIX-Fc) (Homo sapiens, UniProt Q16790).
T2 construct: purchased SinoBliological (Sino Biological) 10107-H02H
Description: Surface plasmon resonance assay with hCAIX-Fc. In kind it is binding. The following applies: 25° C.; for t1/2 category (activity): SPR dissociation half-life, hCAIX-Fc; for Kd: SPR, hCAIX-Fc captured, read-out: pKD category (activity) (converted). As for the experimental part:
Surface plasmon resonance (SPR) studies were performed using a Biacore™ T200 SPR system (GE Healthcare Life Sciences). Briefly, polarized light is directed towards a gold-labeled sensor surface, and minimum intensity reflected light is detected. The angle of reflected light changes as molecules bind and dissociate.
Fc-fusion protein of human carbonic anhydrase IX (hCAIX-Fc, SinoBliological, Cat #10107-H02H) was captured on a Fc-capture chip (Biacore™ CM5 sensor chip coated with ˜300 RU of an Fc-binding peptide). Recombinant carbonic anydrase was diluted in Running Buffer (PBST, 0.1% DMSO) to a final concentration 100 or 200 nM and than flushed over the Fc-capture chip to immobilized ˜1000 RUs.
Stock solutions of test compounds were prepared by dissolving each compound in DMSO. DMSO stock solution were diluted 1:1000 in Running Buffer without DMSO. Further sequencial dilutions were made with Running Buffer containing 0.1% DMSO. SPR binding analyses were performed in Single Cycle Kinetic (SCK) mode at 25° C. Flow cell coated with the Fc-binding peptide only served as reference flowcell. After each SCK run, carbonic andydrase IX was removed with 10 mM glycine buffer, pH 1.5.
In between every three SCK measurements, a blank run with Running Buffer instead of test compound was included to correct for baseline drifts (double blanking methods).
Table 11 describes the protocol steps for Fc-fusion target capturing and assessment of the binding kinetics.
For each test compound, SPR raw data in the form of resonance units (RU) were plotted as sensorgrams using the Biacore™ T200 control software. The signal from the blank sensorgram was subtracted from that of the test compound sensorgram (blank corrected). The blank corrected sensorgram was corrected for baseline drift by subtracting the sensorgram of a SCK run without the test compound (running buffer only). The association rate (kon), dissociation rate (koff), dissociation constant (KD), and t1/2 were calculated from Blank-normalized SPR data using the 1:1 Langmuir binding model from the Biacore™ T200 evaluation software. Raw data and fit results were imported as text files in IDBS. The pKD value (negative decadic logarithm of dissociation constant) was calculated in the IDBS excel template.

In the case of `CC(C)C[C@@H]1NC(=O)[C@H](Cc2c[nH]c3ccccc23)NC(=O)[C@H](CC(=O)O)N(C)C(=O)[C@H]2CCCN2C(=O)[C@H](CCC(=O)O)NC(=O)[C@@H](NC(=O)[C@H](Cc2ccc(O)cc2)NC(=O)[C@@H](NC(=O)CN2CCC(NC(=O)CN3CCN(CC(=O)O)CCN(CC(=O)O)CCN(CC(=O)O)CC3)CC2)C(C)C)CSCc2cccc(c2)CSC[C@@H](C(N)=O)NC(=O)[C@H](CO)NC(=O)[C@H](Cc2c[nH]c3ccccc23)NC(=O)[C@H]([C@@H](C)O)NC1=O` [3BP-4107] ({DOTA}-[X2]VYCE[dP][NMeD]WLTWSC-NH2; linker 4-13 via mXylylene), the IC50 in assay [1] is less than 0.01 µM. Besides, in assay [2], the “t1/2 category (activity)” value was “A (t1/2>15.0 minutes)” and the Kd is less than 0.01 µM.

Consider `CC(C)C[C@@H]1NC(=O)[C@H](Cc2c[nH]c3ccccc23)NC(=O)[C@H](CC(=O)O)NC(=O)[C@@H](CCC(=O)NC[C@H](O)[C@@H](O)[C@H](O)[C@H](O)CO)NC(=O)[C@H](CCC(=O)O)NC(=O)[C@@H](NC(=O)[C@H](Cc2ccc(O)cc2)NC(=O)[C@@H](NC(=O)CN2CCC(NC(=O)CN3CCN(CC(=O)O)CCN(CC(=O)O)CCN(CC(=O)O)CC3)CC2)C(C)C)CSCc2cccc(c2)CSC[C@@H](C(N)=O)NC(=O)[C@H](CO)NC(=O)[C@H](Cc2c[nH]c3ccccc23)NC(=O)[C@H]([C@@H](C)O)NC1=O` [3BP-4119] ({DOTA}-[X2]VYCE[dE](NH(1-deoxy-D-glucityl))DWLTWSC-NH2; linker 4-13 via mXylylene), for which the IC50 in assay [1] is less than 0.01 µM. The Kd in assay [2] is less than 0.01 µM.

For the compound `CC(C)C[C@@H]1NC(=O)[C@H](Cc2c[nH]c3ccccc23)NC(=O)[C@H](CC(=O)O)NC(=O)[C@H]2CCCN2C(=O)[C@H](CCC(=O)O)NC(=O)[C@@H](NC(=O)[C@H](Cc2ccc(O)cc2)NC(=O)[C@@H](NC(=O)CN2CCC(NC(=O)CN3CCN(CC(=O)O)CCN(CC(=O)O)CCN(CC(=O)O)CC3)CC2)C(C)C)CSCc2cccc(c2)CSC[C@@H](C(N)=O)NC(=O)[C@H](CO)NC(=O)[C@H](Cc2c[nH]c3ccccc23)NC(=O)[C@H](CCC(=O)NC[C@H](O)[C@@H](O)[C@H](O)[C@H](O)CO)NC1=O` [3BP-4121] ({DOTA}-[X2]VYCE[dP]DWLE(NH(1-deoxy-D-glucityl))WSC-NH2; linker 4-13 via mXylylene), the IC50 in assay [1] was less than 0.01 µM. In assay [2], the “t1/2 category (activity)” value is on record as “A (t1/2>15.0 minutes)” and the Kd is less than 0.01 µM.

In the case of `CC(C)C[C@@H]1NC(=O)[C@H](Cc2c[nH]c3ccccc23)NC(=O)[C@H](CC(=O)O)NC(=O)[C@H]2CCCN2C(=O)[C@H](CCC(=O)O)NC(=O)[C@@H](NC(=O)[C@H](Cc2ccc(O)cc2)NC(=O)[C@@H](NC(=O)CN2CCC(NC(=O)CN3CCN(CC(=O)O)CCN(CC(=O)O)CCN(CC(=O)O)CC3)CC2)C(C)C)CSCc2cccc(c2)CSC[C@@H](C(N)=O)NC(=O)[C@H](CCC(=O)NC[C@H](O)[C@@H](O)[C@H](O)[C@H](O)CO)NC(=O)[C@H](Cc2c[nH]c3ccccc23)NC(=O)[C@H]([C@@H](C)O)NC1=O` [3BP-4122] ({DOTA}-[X2]VYCE[dP]DWLTWE(NH(1-deoxy-D-glucityl))C-NH2; linker 4-13 via mXylylene), the IC50 in assay [1] was less than 0.01 µM. In addition, in assay [2], the “t1/2 category (activity)” value is given as “A (t1/2>15.0 minutes)” and the Kd was less than 0.01 µM.

Consider `CC(C)C[C@@H]1NC(=O)[C@H](Cc2c[nH]c3ccccc23)NC(=O)[C@H](CS(=O)(=O)Cc2ccccc2)NC(=O)[C@H]2CCCN2C(=O)[C@H](CCC(=O)O)NC(=O)[C@@H](NC(=O)[C@H](Cc2ccc(O)cc2)NC(=O)[C@@H](NC(=O)CN2CCC(NC(=O)CN3CCN(CC(=O)O)CCN(CC(=O)O)CCN(CC(=O)O)CC3)CC2)C(C)C)CSCc2cccc(c2)CSC[C@@H](C(N)=O)NC(=O)[C@H](CO)NC(=O)[C@H](Cc2c[nH]c3ccccc23)NC(=O)[C@H]([C@@H](C)O)NC1=O` [3BP-4123] ({DOTA}-[X2]VYCE[dP][X19]WLTWSC-NH2; linker 4-13 via mXylylene), for which, in assay [1], the IC50 is less than 0.01 µM. In assay [2], the “t1/2 category (activity)” value is given as “A (t1/2>15.0 minutes)” and the Kd is less than 0.01 µM.

For the compound `CC(C)C[C@@H]1NC(=O)[C@H](Cc2ccc(I)cc2)NC(=O)[C@H](CC(=O)O)NC(=O)[C@H]2CCCN2C(=O)[C@H](CCC(=O)O)NC(=O)[C@@H](NC(=O)[C@H](Cc2ccc(O)cc2)NC(=O)[C@@H](NC(=O)CN2CCC(NC(=O)CN3CCN(CC(=O)O)CCN(CC(=O)O)CCN(CC(=O)O)CC3)CC2)C(C)C)CSCc2cccc(c2)CSC[C@@H](C(N)=O)NC(=O)[C@H](CO)NC(=O)[C@H](Cc2c[nH]c3ccccc23)NC(=O)[C@H]([C@@H](C)O)NC1=O` [3BP-4134] ({DOTA}-[X2]VYCE[dP]D[Phe(4-I)]LTWSC-NH2; linker 4-13 via mXylylene), in assay [1], the IC50 is less than 0.01 µM. Also, in assay [2], the “t1/2 category (activity)” value was “C (t1/2 between 2.1 and 5.0 minutes)”; the Kd is less than 0.01 µM.

Consider `CC(C)C[C@@H]1NC(=O)[C@H](Cc2cccc(C(F)(F)F)c2)NC(=O)[C@H](CC(=O)O)NC(=O)[C@H]2CCCN2C(=O)[C@H](CCC(=O)O)NC(=O)[C@@H](NC(=O)[C@H](Cc2ccc(O)cc2)NC(=O)[C@@H](NC(=O)CN2CCC(NC(=O)CN3CCN(CC(=O)O)CCN(CC(=O)O)CCN(CC(=O)O)CC3)CC2)C(C)C)CSCc2cccc(c2)CSC[C@@H](C(N)=O)NC(=O)[C@H](CO)NC(=O)[C@H](Cc2c[nH]c3ccccc23)NC(=O)[C@H]([C@@H](C)O)NC1=O` [3BP-4135] ({DOTA}-[X2]VYCE[dP]D[Phe(3-CF3)]LTWSC-NH2; linker 4-13 via mXylylene), for which the IC50 in assay [1] was less than 0.01 µM. Also, in assay [2], the “t1/2 category (activity)” value is “B (t1/2 between 5.1 and 15.0 minutes)”; the Kd was less than 0.01 µM.

For the compound `CC(C)C[C@@H]1NC(=O)[C@H](Cc2ccc(C(F)(F)F)cc2)NC(=O)[C@H](CC(=O)O)NC(=O)[C@H]2CCCN2C(=O)[C@H](CCC(=O)O)NC(=O)[C@@H](NC(=O)[C@H](Cc2ccc(O)cc2)NC(=O)[C@@H](NC(=O)CN2CCC(NC(=O)CN3CCN(CC(=O)O)CCN(CC(=O)O)CCN(CC(=O)O)CC3)CC2)C(C)C)CSCc2cccc(c2)CSC[C@@H](C(N)=O)NC(=O)[C@H](CO)NC(=O)[C@H](Cc2c[nH]c3ccccc23)NC(=O)[C@H]([C@@H](C)O)NC1=O` [3BP-4139] ({DOTA}-[X2]VYCE[dP]D[Phe(4-CF3)]LTWSC-NH2; linker 4-13 via mXylylene), in assay [1], the IC50 is less than 0.01 µM. In assay [2], the “t1/2 category (activity)” value is “C (t1/2 between 2.1 and 5.0 minutes)”; the Kd is less than 0.01 µM.

`CC(C)[C@H](NC(=O)CN1CCC(NC(=O)CN2CCN(CC(=O)O)CCN(CC(=O)O)CCN(CC(=O)O)CC2)CC1)C(=O)N[C@@H](Cc1ccc(O)cc1)C(=O)N[C@H]1CSCc2cccc(c2)CSC[C@@H](C(N)=O)NC(=O)[C@H](CO)NC(=O)[C@H](Cc2c[nH]c3ccccc23)NC(=O)[C@H]([C@@H](C)O)NC(=O)[C@H](CC2CCCCC2)NC(=O)[C@H](Cc2c[nH]c3ccccc23)NC(=O)[C@H](CC(=O)O)NC(=O)[C@H]2CCCN2C(=O)[C@H](CCC(=O)O)NC1=O` [3BP-4143] ({DOTA}-[X2]VYCE[dP]DW[Cha]TWSC-NH2; linker 4-13 via mXylylene): the IC50 in assay [1] was less than 0.01 µM. In assay [2], the “t1/2 category (activity)” value was “C (t1/2 between 2.1 and 5.0 minutes)”; the Kd is less than 0.01 µM.
